Experimental data published in patent US11266640B2, “Polycyclic compound acting as IDO inhibitor and/or IDO-HDAC dual inhibitor” (Hangzhou Innogate Pharma Co., Ltd., priority 2017, dated 2022).

Experiments:
hIDO1 = biological target: T1, hIDO1 (Homo sapiens, UniProt P14902); experiment: IDO inhibition activity based on HEK293T cells transfected with hIDO1 plasmid; assay type: cell-based; details: HEK293T cells transfected with hIDO1, 16 hours incubation, OD 480 nm; read-out: IDO inhibitory activity of HEK293T cells (IC50)
T1 construct: expressed in transfected cells; host or cells: HEK293T (293T) cells, transient transfection with Fugene 6
T1 sequence (P14902 whole entry): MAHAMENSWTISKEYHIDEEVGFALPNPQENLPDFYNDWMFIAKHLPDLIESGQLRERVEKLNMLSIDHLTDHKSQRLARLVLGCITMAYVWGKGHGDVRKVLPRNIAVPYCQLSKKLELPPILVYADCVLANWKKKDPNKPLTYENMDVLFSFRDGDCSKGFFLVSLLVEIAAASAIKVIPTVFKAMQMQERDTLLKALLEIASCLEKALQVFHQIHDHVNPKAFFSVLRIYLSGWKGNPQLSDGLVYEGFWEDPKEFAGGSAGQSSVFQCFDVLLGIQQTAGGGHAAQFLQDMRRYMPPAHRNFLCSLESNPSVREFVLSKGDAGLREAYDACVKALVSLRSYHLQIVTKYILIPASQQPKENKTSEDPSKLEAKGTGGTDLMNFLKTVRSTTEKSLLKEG
Experimental: 1. Test Method for IDO Inhibition Activity Based on HEK293T Cells:
The first step: cell transfection and plating. 5×10^6 293T cells were separately seeded in two T75 flasks and incubated overnight at 37° C. in a 5% CO2 incubator. […] of a mixture containing 1.5 μg of hIDO1 plasmid and 300 μL of opti-MEM was made into a mixture A; 18 μL of liposome fugene 6 was mixed with 300 μL of opti-MEM to prepare a mixture B, and allowed to stand at room temperature for 5 minutes. Mixture A and Mix B were mixed, placed at room temperature for 20 minutes, added to a 293T culture flask, and the other flask was used as a control and incubated overnight at 37° C. in a 5% CO2 incubator. The medium was discarded, digested with trypsin, and after digestion, the cells were neutralized with serum-containing medium, and the cells were blown to cause the cells to fall off. Pipette the cell suspension into a centrifuge tube and centrifuge at a speed of 800-1000 for 1-3 minutes. Aspirate the cell supernatant from the centrifuge tube. Add an appropriate volume of medium to the tube and gently blister to resuspend the cells. Count using a Vi-Cell XR cytometer. Adjust the cell suspension to the appropriate concentration. The cell suspension was added to a white-well 96-well plate at 80 μL/well. The second step: preparation and addition of the compound. Compounds were formulated in DMSO at 600 μM and the compounds were diluted in DMSO according to a multiple of the following table to give 6 concentration gradients of the compound. The 200× compound prepared in DMSO was formulated into a 10× dilution solution in proportion to the corresponding cell culture medium. Add 10 μL of 10× corresponding compound dilution and 10 μL of 10×TRP to each well, except for Min. Incubate for 16 hours in a 37° C. incubator. The third step: detection and analysis. Cell morphology was observed under an inverted microscope. 80 μL of the supernatant was added to a 3894 plate, and 10 μL of 6.1 N trichloroacetic acid was added to each well, shaken for 2 minutes, and placed in a 50-degree incubator for 30 minutes. Centrifuged at 2500 rpm for 10 minutes. Take 70 μL of the supernatant and transfer to a 3635 UV plate, add 70 μL of the reaction solution, and shake for 2 minutes to make the reaction uniform. Use EnSpire (PE) to detect data with an OD of 480 nm. The cell culture plate 3903 was allowed to stand at room temperature for 30 minutes. 100 μL/well of the cell activity detecting reagent was added to the culture plate. Mix on a shaker for 2 minutes to induce cell lysis. The 96-well plate was allowed to stand at room temperature for 10 minutes to stabilize the luminescence signal. Paste the white base film on the bottom of the plate and the plate was tested in Flexstation 3 (the relevant setting is: Illumination, integration time 500 ms). Record the experimental results obtained from the analysis.
The IC50 value is expressed by: A: IC50 value≤10 nM; B: 10 nM<IC50 value≤50 nM; C: 50 nM<IC50 value≤100 nM; D: IC50 value>100 nM.

IDO = biological target: T2, IDO (Homo sapiens, UniProt P14902); experiment: Hela cell-based IDO inhibitory activity test (IFNγ added); details: Hela cells with IFNγ, 48 hours incubation, OD 480 nm
T2 construct: endogenous in cells; host or cells: HeLa cells treated with IFNγ
T2 sequence (P14902 whole entry): as above
Experimental: 2. Hela Cell-Based IDO Inhibitory Activity Test Method
The first step: cell plating. Prepare complete medium and mix well. Cell lines that are in good growth state are selected. Remove the cell culture flask from the incubator and check the cell name, media type and cell generation number on the bottle. The medium was discarded, digested with trypsin, and after digestion, the cells were neutralized with serum-containing medium, and the cells were blown to cause the cells to fall off. Pipette the cell suspension into a centrifuge tube and centrifuge at a speed of 800-1000 for 3-5 minutes. Aspirate the cell supernatant from the centrifuge tube. Add an appropriate volume of medium to the tube and gently blister to resuspend the cells. Count using a Vi-Cell XR cytometer. Adjust the cell suspension to the appropriate concentration. The cell suspension was added to a white-well 96-well plate at 80 μl/well according to the schematic below. The second step: preparation and addition of the compound. Compounds were formulated in DMSO at 600 μM and the compounds were diluted in DMSO according to a multiple of the following table to give 6 concentration gradients of the compound. The 200× compound prepared in DMSO was formulated into a 10× dilution solution in proportion to the corresponding cell culture medium. After 24 hours of cell seeding, 10 μL of 10× corresponding compound dilution and 10 μL of 10×IFNγ were added to each well. Incubate for 48 hours in a 37° C. incubator. The third step: detection and analysis. Cell morphology was observed under an inverted microscope. 80 μL of the supernatant was added to a 3894 plate, 10 μL of 6.1 N trichloroacetic acid was added to each well, shaken for 2 minutes, and placed in a 50-degree incubator for 30 minutes. Centrifuge, 2500 rpm for 10 minutes.
Take 70 μL of the supernatant and transfer to a 3635 UV plate, add 70 μL of the reaction solution, and shake for 2 minutes to make the reaction uniform. Use EnSpire (PE) to detect data with an OD of 480 nm. The cell culture plate 3903 was allowed to stand at room temperature for 30 minutes. 100 μL/well of the cell activity detecting reagent was added to the culture plate. Mix on a shaker for 2 minutes to induce cell lysis. The 96-well plate was allowed to stand at room temperature for 10 minutes to stabilize the luminescence signal. Paste the white base film on the bottom of the plate and tested with Flexstation3 plate (the relevant setting is: Illumination, integration time 500 ms). Record the experimental results obtained from the analysis.
The IC50 value is expressed in the following manner: […]

| IC50 (hIDO1) [nM] | IC50 (IDO) [nM] | SMILES |
| --- | --- | --- |
| ≤ 10 | ≤ 5 | C#Cc1ccc(NC(=O)C(C)(C)[C@H]2C[C@H]3C[C@@H](c4ccnc5ccc(F)cc45)C[C@H]3C2)nc1 [Compound 86] |
| 10 to 50 | > 100 | CC(C(=O)Nc1ccc(C#CC2CC2)cn1)[C@H]1C[C@H]2CC(c3ccnc4ccc(F)cc34)C[C@H]2C1 (stereo partly shown) [Compound 79] |
| ≤ 10 | ≤ 5 | CC#Cc1ccc(NC(=O)C(C)(C)[C@H]2C[C@H]3C[C@@H](c4ccnc5ccc(F)cc45)C[C@H]3C2)nc1 [Compound 90] |
| 10 to 50 | ≤ 5 | O=C(C[C@@H]1C[C@@H]2CC(c3ccnc4ccc(F)cc34)=C[C@@H]2C1)Nc1ccc(Cl)cc1 [Compound 11] |
| ≤ 10 | ≤ 5 | CC(C)(C(=O)Nc1ccc(C#N)cn1)[C@H]1C[C@H]2C[C@@H](c3ccnc4ccc(F)cc34)C[C@H]2C1 [Compound 88] |
| 10 to 50 | ≤ 5 | CC(C(=O)Nc1ccc(Cl)cc1)[C@@H]1C[C@]2(C)C[C@H](c3ccnc4ccc(F)cc34)C[C@]2(C)C1 (stereo partly shown) [Compound 40] |
| 10 to 50 | 5 to 25 | CC(C(=O)Nc1cccc(Cl)c1)[C@H]1C[C@H]2C[C@@H](c3ccnc4ccc(F)cc34)C[C@H]2C1 (stereo partly shown) [Compound 7] |
| 10 to 50 | ≤ 5 | C#Cc1ccc(NC(=O)C(C)[C@H]2C[C@H]3C[C@@H](c4ccnc5ccc(F)cc45)C[C@H]3C2)nc1 (stereo partly shown) [Compound 74] |
| ≤ 10 | ≤ 5 | C#Cc1ccc(NC(=O)C2([C@@H]3C[C@H]4C[C@@H](c5ccnc6ccc(F)cc56)C[C@H]4C3)CC2)cn1 [Compound 93] |
| ≤ 10 | > 100 | CC(C)(C(=O)Nc1ccc(Cl)cn1)[C@H]1C[C@H]2C[C@@H](c3ccnc4ccc(F)cc34)C[C@H]2C1 [Compound 84] |
| 10 to 50 | 5 to 25 | COc1ccc(NC(=O)C(C)[C@H]2C[C@H]3C[C@@H](c4ccnc5ccc(F)cc45)C[C@H]3C2)cn1 (stereo partly shown) [Compound 6] |
| 10 to 50 | 5 to 25 | CC(C(=O)Nc1ccc(Cl)nc1)N1C[C@H]2C[C@@H](c3ccnc4ccc(F)cc34)C[C@H]2C1 (stereo partly shown) [Compound 45] |
| ≤ 10 | ≤ 5 | CC(C(=O)Nc1ccc(C#N)nc1)[C@H]1C[C@H]2C[C@@H](c3ccnc4ccc(F)cc34)C[C@H]2C1 (stereo partly shown) [Compound 72] |
| ≤ 10 | ≤ 5 | C#Cc1ccc(NC(=O)C[C@@H]2C[C@@H]3C[C@H](c4ccnc5ccc(F)cc45)C[C@@H]3C2)nc1 [Compound 67] |
|  | ≤ 5 | C#Cc1ccc(NC(=O)C[C@H]2C[C@H]3CC(c4ccnc5ccc(F)cc45)C[C@H]3C2)cc1 (stereo partly shown) [Compound 19] |
|  | ≤ 5 | CC(C(=O)Nc1ccc(Cl)nc1)C1=C[C@H]2C[C@@H](c3ccnc4ccc(F)cc34)C[C@H]2C1 (stereo partly shown) [Compound 39] |
|  | ≤ 5 | CC(C)(C(=O)Nc1ccc(C#N)nc1)[C@H]1C[C@H]2C[C@@H](c3ccnc4ccc(F)cc34)C[C@H]2C1 [Compound 89] |
|  | 5 to 25 | O=C(C[C@@H]1C[C@@H]2CC(c3ccnc4ccc(F)cc34)=C[C@@H]2C1)Nc1ccc(Cl)cn1 [Compound 61] |
|  | ≤ 5 | O=C(C[C@H]1C[C@H]2CC(c3ccnc4ccc(F)cc34)C[C@H]2C1)Nc1ccc(Cl)nc1 (stereo partly shown) [Compound 18] |

| IC50 (hIDO1) [nM] | IC50 (IDO) [nM] | SMILES |
| --- | --- | --- |
|  | ≤ 5 | CC(C(=O)Nc1ccc(Cl)cc1)N1C[C@H]2C[C@@H](c3ccnc4ccc(F)cc34)C[C@H]2C1 (stereo partly shown) [Compound 44] |
|  | ≤ 5 | N#Cc1ccc(NC(=O)C[C@H]2C[C@@H]3C[C@H](c4ccnc5ccc(F)cc45)C[C@@H]3C2)nc1 [Compound 70] |
|  | 25 to 100 | O=C(Nc1ccc(Cl)cc1)C(=O)N1C[C@H]2C[C@@H](c3ccnc4ccc(F)cc34)C[C@H]2C1 [Compound 47] |
|  | ≤ 5 | C[C@H](C(=O)Nc1ccc(Cl)cn1)[C@H]1C[C@H]2CC(c3ccnc4ccc(F)cc34)C[C@H]2C1 (single isomer, unassigned) [Compound 26B] |
|  | 5 to 25 | C#Cc1ccc(NC(=O)C[C@H]2C[C@@H]3CC(c4ccnc5ccc(F)cc45)=C[C@@H]3C2)nc1 [Compound 65] |
|  | 5 to 25 | O=C(C[C@@]1(F)C[C@H]2C[C@@H](c3ccnc4ccc(F)cc34)C[C@H]2C1)Nc1ccc(Cl)cc1 [Compound 59] |
|  | > 100 | O=C(Nc1ccc(Cl)cc1)N1C[C@H]2C[C@@H](c3ccnc4ccc(F)cc34)C[C@H]2C1 [Compound 48] |
|  | ≤ 5 | N#Cc1ccc(NC(=O)C[C@@H]2C[C@H]3CC(c4ccnc5ccc(F)cc45)C[C@H]3C2)cc1 (stereo partly shown) [Compound 23] |
|  | 25 to 100 | CC(C(=O)Nc1ccc(Cl)nn1)[C@H]1C[C@H]2C[C@@H](c3ccnc4ccc(F)cc34)C[C@H]2C1 (stereo partly shown) [Compound 29] |
|  | 5 to 25 | CC(C(=O)Nc1ccc(C(F)(F)F)cn1)[C@H]1C[C@H]2C[C@@H](c3ccnc4ccc(F)cc34)C[C@H]2C1 (stereo partly shown) [Compound 81] |
|  | > 100 | O=C(C[C@H]1C[C@H]2CC(c3ccnc4ccc(F)cc34)C[C@H]2C1)Nc1ccc2c(c1)OC(F)(F)O2 (stereo partly shown) [Compound 16] |
|  | > 100 | O=C(Nc1ccc(Cl)cc1)O[C@@H]1C[C@@H]2C[C@H](c3ccnc4ccc(F)cc34)C[C@@H]2C1 [Compound 106] |
|  | ≤ 5 | C[C@@H](C(=O)Nc1ccc(Cl)cn1)[C@H]1C[C@H]2CC(c3ccnc4ccc(F)cc34)C[C@H]2C1 (single isomer, unassigned) [Compound 26A] |
|  | 5 to 25 | C#Cc1ccc(NC(=O)C2([C@H]3C[C@H]4C[C@@H](c5ccnc6ccc(F)cc56)C[C@H]4C3)CC2)cn1 [Compound 97] |
|  | > 100 | CC(C(=O)NC1CCOCC1)[C@H]1C[C@H]2C[C@@H](c3ccnc4ccc(F)cc34)C[C@H]2C1 (stereo partly shown) [Compound 3] |
|  | ≤ 5 | C#Cc1ccc(NC(=O)C(C)[C@H]2C[C@H]3C[C@@H](c4ccnc5ccc(F)cc45)C[C@H]3C2)cn1 (stereo partly shown) [Compound 37] |
|  | ≤ 5 | C#Cc1ccc(NC(=O)C[C@@H]2C[C@@H]3C[C@H](c4ccnc5ccc(F)cc45)C[C@@H]3C2)cn1 [Compound 66] |
|  | 5 to 25 | CC(C(=O)Nc1ccc(Cl)cn1)N1C[C@H]2C[C@@H](c3ccnc4ccc(F)cc34)C[C@H]2C1 (stereo partly shown) [Compound 99] |
|  | > 100 | O=C(C[C@@H]1C[C@@H]2C[C@@H](N3CCCc4ccccc43)C[C@@H]2C1)Nc1ccc(Cl)cc1 [Compound 52] |
